The test system of test [1] is NOMO1. The test is described as follows: AUC of viability dose-response curve (% viability x log10 dose units); higher = less sensitive. The conditions noted are these: 48 h. Put shortly: (§1)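 Area under the curve was integrated by trapezoidal rule from a log-logistic fit of normalised viability, with curves exceeding full viability scaled and quality-control failures removed. The fit had four parameters over log10 doses. Viability came from CellTiter-Glo One luminescence, normalised per plate to DMSO and cell-free wells, after leukemia cells adapted to each medium (500 or 1000 cells/well, 1536-well plates) were exposed to library compounds in DMSO for 48 h at 37°C. The 11 threefold doses ran from 47 μM to 0.79 nM.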

A further test deals with P12-Ichikawa. Described as above. To be noted: 48 h. Summed up:
as §1

Another test concerns SEM cells. The description is as above. The conditions noted are these: 48 h. Summed up:
as §1

For test [2], the system named is NOMO1. Kind of test: cell viability relative to DMSO control; higher = less cytotoxic. The conditions noted are these: RPMI 5 mM glucose + 10% dialyzed FBS, 48 h. Summed up:
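Viability values are per-plate percentages of DMSO wells, with background from cell-free wells. Library compounds in DMSO were pin-dosed, in an 11-point threefold series from 47 μM to 0.79 nM, onto NOMO1 or SEM (500 cells/well) or P12-Ichikawa (1000 cells/well) leukemia cells in 1536-well plates (5 μl). Those cells had been adapted for at least four passages in each medium, and CellTiter-Glo One luminescence was read after 48 h at 37°C.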

Where [3] appears, read: RPMI 5 mM glucose + 10% dialyzed FBS.

Each structure is given as a SMILES string.

Consider `COc1cc2nc(N3CCN(C(=O)C4CCCO4)CC3)nc(N)c2cc1OC` (stereo not given), for which the “AUC of viability dose-response curve” value in the test on NOMO1 [1] (HPLM + 10% dialyzed FBS) is 473; with NOMO1 [1] (RPMI 5 mM glucose + 10% FBS), 471; with NOMO1 [1] (setting [3]) it was 458; with P12-Ichikawa (HPLM + 10% dialyzed FBS), 447; in the test on P12-Ichikawa (RPMI 5 mM glucose + 10% FBS), 470; in the test on P12-Ichikawa (setting [3]) it was 445. Further, the “AUC of viability dose-response curve” value was 430 in the test on SEM cells (HPLM + 10% dialyzed FBS), 460 in the test with SEM cells (RPMI 5 mM glucose + 10% FBS) and 418 in the test on SEM cells (setting [3]).
On to `CCN(CC)CCCCNc1ncc2c(n1)N(C)C(=O)N(c1c(Cl)c(OC)cc(OC)c1Cl)C2`, for which the “AUC of viability dose-response curve” value with NOMO1 [1] (HPLM + 10% dialyzed FBS) came to 429; with NOMO1 [1] (RPMI 5 mM glucose + 10% FBS) it was 453; in the test with NOMO1 [1] (setting [3]), 451; in the test on P12-Ichikawa (HPLM + 10% dialyzed FBS) it was 450; in the test on P12-Ichikawa (RPMI 5 mM glucose + 10% FBS), 446; in the test with P12-Ichikawa (setting [3]), 448. Moreover, the “AUC of viability dose-response curve” value in the test with SEM cells (HPLM + 10% dialyzed FBS) turned out to be 423; in the test with SEM cells (RPMI 5 mM glucose + 10% FBS) it was 421; with SEM cells (setting [3]), 422.
Regarding `C[S+](=O)([O-])c1ccc(C(=O)Nc2ccc(Cl)c(-c3ccccn3)c2)c(Cl)c1`, the cell viability with NOMO1 [2] (0.000781 µM) was found to be 119%; in the test on NOMO1 [2] (0.00234 µM), 110%; in the test with NOMO1 [2] (0.00702 µM), 138%; in the test with NOMO1 [2] (0.0211 µM), 143%; in the test on NOMO1 [2] (0.0632 µM), 130%; in the test on NOMO1 [2] (0.19 µM), 136%. Also, the cell viability in the test with NOMO1 [2] (0.569 µM) amounted to 139%; with NOMO1 [2] (1.71 µM), 144%; in the test with NOMO1 [2] (5.12 µM), 144%; in the test with NOMO1 [2] (15.4 µM) it was 135%; with NOMO1 [2] (46.1 µM) it was 128%. Besides, the “AUC of viability dose-response curve” value was found to be 445 in the test with NOMO1 [1] (HPLM + 10% dialyzed FBS); 468 in the test on NOMO1 [1] (RPMI 5 mM glucose + 10% FBS); 465 in the test with NOMO1 [1] (setting [3]); 464 in the test with P12-Ichikawa (HPLM + 10% dialyzed FBS); 454 with P12-Ichikawa (RPMI 5 mM glucose + 10% FBS); 462 with P12-Ichikawa (setting [3]).

(Values after the supplement of paper PMC11451515.)
